The record followed here is patent US20250115598A1 (Anaxis Pharma Pty Ltd, priority 2021, published 2025).

Like-named read-outs stand apart in the source and are kept apart here.

Assay [1] relates to U937 human histiocytic leukemia cell line. Nature of the assay: Cellular assay: inhibition of TSQ induced necroptosis, CellTitre-Glo viability. Particulars: U937 cells, 48 hours, TSQ cocktail, read-out: Inhibition of TSQ-induced necroptosis (IC50 cell-based assay). Put shortly: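 U937 cells (20,000/well) treated with compound (10-point, 36 μM top, 1:3) plus TSQ cocktail (hTNF-Fc 100 ng/ml, Smac mimetic 500 nM, Q-VD-OPh 10 μM), 48 h at 37° C., 0.3% DMSO. Viability by CellTitre-Glo ATP luminescence; counter screen without TSQ measured compound-only effects on viability.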

Another assay addresses human MLKL (full length) (Homo sapiens (Human), UniProt Q8NB16). Nature of the assay: KINOMEscan binding assay, human MLKL (full length). Put shortly: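 Active-site competition binding: DNA-tagged kinase (T7 phage fusion from BL21-derived E. coli lysate, or HEK-293-expressed) captured on immobilized-ligand beads, with bound kinase in the eluate quantified by qPCR. Compounds ran as 11-point 3-fold dilutions, 1% DMSO, top 30,000 nM for most. Kd came from a Hill fit (slope −1).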

A further assay concerns U937 cells. The experiment in a line: Counter screen: cell viability without the TSQ cocktail (off-target effect). Set-up: species or system human. Put shortly:
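U937 cells (20000/well, HT-RPMI + 7.4% FBS) treated with compound (10-point 1:3 dilution from 36 μM, 0.3% DMSO) without the TSQ cocktail for 48 h at 37 °C/5% CO2. Viability read as ATP by CellTiter-Glo luminescence, flagging off-target cytotoxicity.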
On the technique in general: A counterscreen serves to expose hits that act by an unwanted route or on another target.

[2] abbreviates: KINOMEscan, Table 21, read-out: Human MLKL (full-length) (KD).
Setting [3] is: Table 23, read-out: Off-target effect (IC50 cell-based assay).
Where [4] appears, read: hMLKL, Table 25, read-out: MLKL (KD).
[5] abbreviates: Homo sapiens, U-937, Table 26, read-out: Off-target effect (IC50 cell-based assay).

Chain of human MLKL (full length) (Q8NB16 whole entry, the tested form may be a part): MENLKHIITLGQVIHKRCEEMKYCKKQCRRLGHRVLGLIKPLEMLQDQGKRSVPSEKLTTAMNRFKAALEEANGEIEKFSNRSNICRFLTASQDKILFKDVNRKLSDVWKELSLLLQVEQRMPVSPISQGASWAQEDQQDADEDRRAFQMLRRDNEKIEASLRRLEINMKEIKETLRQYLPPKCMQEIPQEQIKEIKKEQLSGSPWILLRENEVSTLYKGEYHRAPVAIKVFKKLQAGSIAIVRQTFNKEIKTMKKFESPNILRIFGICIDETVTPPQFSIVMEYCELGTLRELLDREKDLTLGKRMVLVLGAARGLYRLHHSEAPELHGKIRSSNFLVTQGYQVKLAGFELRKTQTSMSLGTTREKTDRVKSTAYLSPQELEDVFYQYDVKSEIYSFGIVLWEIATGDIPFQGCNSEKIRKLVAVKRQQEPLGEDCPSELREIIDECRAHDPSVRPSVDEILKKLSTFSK

The IC50 is the concentration needed to halve the response being measured. One may read the Kd as the concentration at which binding is half-saturated. On to `Nc1ncc(-c2cnn(C3CCOCC3)c2)c2[nH]nc(-c3ccc(NS(=O)(=O)C(F)F)c(OCc4cccc(Cl)c4)c3)c12` [Compound 131], for which the values for the IC50 (in assay [1] (Table 23); in the assay with U937 cells (setting [3])) were 10 to 1000 nM and more than 10000 nM, respectively. Further, the Kd at human MLKL (full length) (setting [2]) lay within 1 to 100 nM.

Regarding `Cc1ncsc1-c1ccc(CNC(=O)[C@@H]2C[C@@H](O)CN2C(=O)[C@@H](NC(=O)COCCN2CCCC(n3cc(-c4cnc(N)c5c(-c6ccc(NS(=O)(=O)C(F)F)c(O[C@@H](C)c7ccc(F)cc7)c6)nn(C)c45)cn3)C2)C(C)(C)C)cc1` (stereo partly drawn) [Compound 1015, (2S,4R)-1-[(2S)-2-(2-{2-[3-(4-{4-amino-3-[4-(difluoromethanesulfonamido)-3-[(1S)-1-(4-fluorophenyl)ethoxy]phenyl]-1-methyl-1H-pyrazolo[4,3-c]pyridin-7-yl}-1H-pyrazol-1-yl)piperidin-1-yl]ethoxy}acetamido)-3,3-dimethylbutanoyl]-4-hydroxy-N-{[4-(4-methyl-1,3-thiazol-5-yl)phenyl]methyl}pyrrolidine-2-carboxamide], the IC50 in assay [1] (Homo sapiens, U-937, Table 26) was less than 1000 nM; with U937 cells (setting [5]) it was more than 10000 nM. At human MLKL (full length) (setting [4]), the Kd is less than 10 nM.

For `C[C@H](Oc1cc(-c2nn(C)c3c(-c4cnn(CCCCCCCOc5cccc6c5C(=O)N(C5CCC(=O)NC5=O)C6=O)c4)cnc(N)c23)ccc1NS(=O)(=O)C(F)F)c1ccc(F)cc1` (stereo partly shown) [Compound 1031, N-(4-{4-amino-7-[1-(7-{[2-(2,6-dioxopiperidin-3-yl)-1,3-dioxo-2,3-dihydro-1H-isoindol-4-yl]oxy}heptyl)-1H-pyrazol-4-yl]-1-methyl-1H-pyrazolo[4,3-c]pyridin-3-yl}-2-[(1 S)-1-(4-fluorophenyl)ethoxy]phenyl)-1,1-difluoromethanesulfonamide], the IC50 in assay [1] (Homo sapiens, U-937, Table 26) is less than 1000 nM. Moreover, the Kd on human MLKL (full length) (setting [4]) lay within 10 to 1000 nM.

`Cc1ncsc1-c1ccc(CNC(=O)[C@@H]2C[C@@H](O)CN2C(=O)[C@@H](NC(=O)COCCOCCn2cc(-c3cnc(N)c4c(-c5ccc(NS(=O)(=O)C(F)F)c(O[C@@H](C)c6ccc(F)cc6)c5)nn(C)c34)cn2)C(C)(C)C)cc1` [Compound 1006, (2S,4R)-1-[(2S)-2-(2-{2-[2-(4-{4-amino-3-[4-(difluoromethanesulfonamido)-3-[(1S)-1-(4-fluorophenyl)ethoxy]phenyl]-1-methyl-1H-pyrazolo[4,3-c]pyridin-7-yl}-1H-pyrazol-1-yl)ethoxy]ethoxy}acetamido)-3,3-dimethylbutanoyl]-4-hydroxy-N-{[4-(4-methyl-1,3-thiazol-5-yl)phenyl]methyl}pyrrolidine-2-carboxamide]: the IC50 in assay [1] (Homo sapiens, U-937, Table 26) is less than 1000 nM; in the assay with U937 cells (setting [5]) it was 1000 to 10000 nM. Moreover, the Kd on human MLKL (full length) (setting [4]) was less than 10 nM.

For the compound `Cc1ncsc1-c1ccc(CNC(=O)[C@@H]2C[C@@H](O)CN2C(=O)[C@@H](NC(=O)CCN2CCCC(n3cc(-c4cnc(N)c5c(-c6ccc(NS(=O)(=O)C(F)F)c(O[C@@H](C)c7ccc(F)cc7)c6)nn(C)c45)cn3)C2)C(C)(C)C)cc1` (stereo partly drawn) [Compound 1014, (2S,4R)-1-[(2S)-2-{3-[3-(4-{4-amino-3-[4-(difluoromethanesulfonamido)-3-[(1S)-1-(4-fluorophenyl)ethoxy]phenyl]-1-methyl-1H-pyrazolo[4,3-c]pyridin-7-yl}-1H-pyrazol-1-yl)piperidin-1-yl]propanamido}-3,3-dimethylbutanoyl]-4-hydroxy-N-{[4-(4-methyl-1,3-thiazol-5-yl)phenyl]methyl}pyrrolidine-2-carboxamide], the IC50 in assay [1] (Homo sapiens, U-937, Table 26) is less than 1000 nM; with U937 cells (setting [5]) it was more than 10000 nM.

As for `Cc1ncsc1-c1ccc(CNC(=O)[C@@H]2C[C@@H](O)CN2C(=O)[C@@H](NC(=O)COCCN2CCC(n3cc(-c4cnc(N)c5c(-c6ccc(NS(=O)(=O)C(F)F)c(O[C@@H](C)c7ccc(F)cc7)c6)nn(C)c45)cn3)CC2)C(C)(C)C)cc1` [Compound 1018, (2S,4R)-1-[(2S)-2-(2-{2-[4-(4-{4-amino-3-[4-(difluoromethanesulfonamido)-3-[(1S)-1-(4-fluorophenyl)ethoxy]phenyl]-1-methyl-1H-pyrazolo[4,3-c]pyridin-7-yl}-1H-pyrazol-1-yl)piperidin-1-yl]ethoxy}acetamido)-3,3-dimethylbutanoyl]-4-hydroxy-N-{[4-(4-methyl-1,3-thiazol-5-yl)phenyl]methyl}pyrrolidine-2-carboxamide], the IC50 in assay [1] (Homo sapiens, U-937, Table 26) is less than 1000 nM; with U937 cells (setting [5]), more than 10000 nM. In addition, the Kd on human MLKL (full length) (setting [4]) was less than 10 nM.

For `Cc1ncsc1-c1ccc(CNC(=O)[C@@H]2C[C@@H](O)CN2C(=O)[C@@H](NC(=O)CCCCCCn2cc(-c3cnc(N)c4c(-c5ccc(NS(=O)(=O)C(F)F)c(O[C@@H](C)c6ccc(F)cc6)c5)nn(C)c34)cn2)C(C)(C)C)cc1` [Compound 1008, (2S,4R)-1-[(2S)-2-[7-(4-{4-amino-3-[4-(difluoromethanesulfonamido)-3-[(1 S)-1-(4-fluorophenyl)ethoxy]phenyl]-1-methyl-1H-pyrazolo[4,3-c]pyridin-7-yl}-1H-pyrazol-1-yl)heptanamido]-3,3-dimethylbutanoyl]-4-hydroxy-N-{[4-(4-methyl-1,3-thiazol-5-yl)phenyl]methyl}pyrrolidine-2-carboxamide], the IC50 in assay [1] (Homo sapiens, U-937, Table 26) is less than 1000 nM; in the assay with U937 cells (setting [5]), 1000 to 10000 nM. Besides, the Kd at human MLKL (full length) (setting [4]) was less than 10 nM.

For “N-(4-(4-amino-1-methyl-7-(1-(1,2,2-trimethylpiperidin-4-yl)-1H-pyrazol-4-yl)-1H-pyrazolo[4,3-c]pyridin-3-yl)-2-((S)-1-(4-fluorophenyl)ethoxy)phenyl)-1,1-difluoromethanesulfonamide [Compound 113]”, the results for the IC50 (in assay [1] (Table 23); in the assay on U937 cells (setting [3])) were less than 10 nM and more than 10000 nM, respectively. Further, the Kd at human MLKL (full length) (setting [2]) was less than 1 nM.
